Measured values: PMC12040169 (PLOS Biology, 2025)

test: in vitro; details: human, hela cells, % viability

Row | SMILES | viability at 28.5 h, 10 µM [%]
1 | O=C(NC1CCCC1)c1ccc2c(c1)OCO2 [CBK002177] | 81
2 | OC(CNCCc1cccnc1)COc1cccc2c1CCCC2 (stereo not drawn) [CBK002237] | 106
3 | OC(CNCc1cccs1)COc1cccc2c1CCCC2 (stereo not drawn) [CBK002239] | 96.1
4 | N#CC(CCCN1CCN(c2ccccc2)CC1)(c1ccccc1)c1ccccc1 [CBK002243C] | 96.8
5 | COC(=O)c1cc(O)ccc1N [CBK002250] | 105
6 | N=C(N)NCc1ccc(Cl)cc1 [CBK002260] | 95.7
7 | O=C(CNC(=O)OCc1ccccc1)NCC(CCCN1CCN(c2ccccc2)CC1)(c1ccccc1)c1ccccc1 [CBK002293] | 125
8 | CCOC(=O)c1c(-c2ccc(OC)cc2)noc1C(=O)c1ccccc1 [CBK002295] | 89.7
9 | COCCNS(=O)(=O)c1ccc(C)cc1 [CBK002332] | 82.5
10 | NC(Cc1ccccc1)CN(CC1(c2ccc(Cl)cc2)CC1)C(=O)Nc1ccc2c(c1)OCO2 (stereo not drawn) [CBK002342C] | 76.1
11 | COc1ccc2c(ccn2S(=O)(=O)c2ccsc2C(=O)O)c1 [CBK002378] | 102
12 | Cc1[nH]cnc1CN1CCc2c(c3ccccc3n2C)C1=O [CBK002383C] | 63.5
13 | COc1cc(CNc2nc(O)cc(C(F)(F)F)n2)cc(OC)c1OC [CBK002390] | 90.3
14 | COc1ccc(F)c(CN(CC(C)(C)CN)C(=O)Nc2c(F)cccc2F)c1 [CBK002405C] | 109
15 | Cc1c(F)cccc1CN(CC(C)(C)CN)C(=O)Nc1ccc(C(F)(F)F)cc1 [CBK002417C] | 89.5
16 | Cc1cccc(CN(CC(C)(C)CN)C(=O)NC(C)c2cccc3ccccc23)n1 (stereo not drawn) [CBK002423C] | 84.4
17 | COc1ccccc1CN(CC(C)(C)CN)C(=O)NC1C[C@H]1c1ccccc1 (stereo partly drawn) [CBK002424C] | 89.6
18 | CC(NC(=O)N(Cc1ccc(-c2ccccc2)cc1)CC(C)(C)CN)c1cccc2ccccc12 (stereo not drawn) [CBK002426C] | 50.9
19 | CC(C)(CN)CN(Cc1ccncc1)C(=O)Nc1ccc(C(C)(C)C)cc1 [CBK002459C] | 82
20 | COc1ccc(F)c(CN(CC(C)(C)CN)C(=O)Nc2ccc(C(C)(C)C)cc2)c1 [CBK002461C] | 94
21 | CC(C)(CN)CN(Cc1c[nH]c(-c2ccccc2)n1)C(=O)Nc1ccc(C(C)(C)C)cc1 [CBK002462C] | 87.5
22 | COc1ccc(F)c(CN(CC(C)(C)CN)C(=O)Nc2ccccc2C(C)(C)C)c1 [CBK002478C] | 98.1
23 | Cc1c(F)cccc1CN(CC(C)(C)CN)C(=O)Nc1ccc2c(c1)OCO2 [CBK002486C] | 87.9

Row | SMILES | viability at 28.5 h, 10 µM [%]
24 | CN1CC[C@@]2(c3cc(F)cc(F)c3)CCC(=O)CC12 (stereo partly drawn) [CBK002500] | 110
25 | O=[N+]([O-])c1ccc(Oc2ccccc2F)cc1 [CBK002532] | 93.9
26 | O=[N+]([O-])c1cc(F)ccc1Oc1cccc2c1CCCC2 [CBK002559] | 93.5
27 | Cc1ccccc1COc1cccc2c1CCCC2 [CBK002562] | 98.2
28 | COc1cc(C#N)ccc1Oc1nnnn1-c1ccccc1 [CBK002571] | 93.1
29 | N#Cc1c(Oc2cccc(Cl)c2Cl)cccc1C(F)(F)F [CBK002592] | 91.1
30 | O=[N+]([O-])c1cccnc1Oc1cccc(Cl)c1Cl [CBK002596] | 98
31 | Cc1ccccc1COc1cccc(Cl)c1Cl [CBK002607] | 90.6
32 | Cn1cnc([N+](=O)[O-])c1Sc1cccs1 [CBK002620] | 90.6
33 | O=[N+]([O-])c1ccc(Sc2cccs2)c(C(F)(F)F)c1 [CBK002621] | 105
34 | COc1ccc([N+](=O)[O-])c(Sc2cccs2)n1 [CBK002625] | 84.9
35 | Clc1ccc(COc2cccc3c2CCCC3)cn1 [CBK002634] | 102
36 | Clc1ccc(CSc2cccs2)cn1 [CBK002639] | 95.5
37 | CCOC(=O)c1ccc(-c2ccc(OC)cc2)cc1 [CBK002658] | 95.2
38 | COc1ccc([C@@]23CC/C(=N/NS(=O)(=O)c4ccc(C)cc4)C[C@@H]2N(Cc2ccccc2)CC3)cc1OC [CBK002717] | 95.5
39 | O=[N+]([O-])c1ccc(Oc2ccccc2)nc1 [CBK002726] | 85.8
40 | N#Cc1c(Oc2cccc3cccnc23)cccc1C(F)(F)F [CBK002728] | 105
41 | N#Cc1ccc(COc2ccccc2)cc1 [CBK002738] | 96.4
42 | O=[N+]([O-])c1ccc(Oc2cccc3cccnc23)c(C(F)(F)F)c1 [CBK002739] | 80.6
43 | Cn1cnc([N+](=O)[O-])c1Oc1ccccc1OCc1ccccc1 [CBK002747] | 91.7
44 | COc1ccc([N+](=O)[O-])c(Oc2ccccc2OCc2ccccc2)n1 [CBK002753] | 88
45 | Clc1ccc(COc2ccccc2OCc2ccccc2)s1 [CBK002766] | 87.7
46 | FC(F)(F)Sc1ccc(COc2cccc3cccnc23)cc1 [CBK002776] | 94.5

Row | SMILES | viability at 28.5 h, 10 µM [%]
47 | Cn1cnc([N+](=O)[O-])c1Oc1cccc(C(F)(F)F)c1 [CBK002790] | 87
48 | COc1ccc([N+](=O)[O-])c(Oc2cccc(C(F)(F)F)c2)n1 [CBK002796] | 94.5
49 | O=[N+]([O-])c1cc(F)ccc1Oc1cccc(C(F)(F)F)c1 [CBK002802] | 91.9
50 | N#Cc1ccc(COc2cccc(C(F)(F)F)c2)cc1 [CBK002811] | 103
51 | Cc1ccc(Oc2ccc(C(F)(F)F)cc2[N+](=O)[O-])c(Br)c1 [CBK002817] | 93.1
52 | Cc1ccc(Oc2c([N+](=O)[O-])ncn2C)c(Br)c1 [CBK002819] | 99.2
53 | Cc1ccc(Oc2ncccc2[N+](=O)[O-])c(Br)c1 [CBK002822] | 94.8
54 | Cc1ccc(Oc2cc(C)c([N+](=O)[O-])cn2)c(Br)c1 [CBK002823] | 92.2
55 | Cc1ccc(Oc2ccc([N+](=O)[O-])cc2)c(Br)c1 [CBK002832] | 90.6
56 | Cc1ccc(OCc2ccccc2)c(Br)c1 [CBK002833] | 105
57 | Cc1ccc(OCc2ccc(Cl)s2)c(Br)c1 [CBK002840] | 79
58 | Cc1ccc(OCc2ccc(Cl)nc2)c(Br)c1 [CBK002842] | 75.8
59 | CCN(CC)C(=O)[C@@H]1CCCN1c1nc(O)cc(C(F)(F)F)n1 [CBK002867] | 92
60 | Cc1cc(=O)oc2cc(SCc3ccc(SC(F)(F)F)cc3)ccc12 [CBK002897] | 97.6
61 | Cc1cc(=O)oc2cc(SCc3ccc(Cl)s3)ccc12 [CBK002898] | 89.5
62 | O=[N+]([O-])c1ccc(Sc2cccc(F)c2)nc1 [CBK002905] | 103
63 | Fc1cccc(Sc2nnnn2-c2ccccc2)c1 [CBK002906] | 108
64 | N#Cc1ccc(Sc2cccc(F)c2)c(F)c1 [CBK002909] | 115
65 | Cc1ccccc1CSc1cccc(F)c1 [CBK002913] | 109
66 | Cc1cc(=O)oc2cc(Sc3cccc(C(F)(F)F)c3C#N)ccc12 [CBK002914] | 93.3
67 | Cc1cc(CSc2cccc(F)c2)no1 [CBK002916] | 97
68 | N#Cc1ccc(CSc2cccc(F)c2)cc1 [CBK002918] | 109
69 | N#Cc1ccccc1-c1ccc(CSc2cccc(F)c2)cc1 [CBK002920] | 107

Row | SMILES | viability at 28.5 h, 10 µM [%]
70 | CN1CCN(c2nc(NS(=O)(=O)c3ccc(C#N)cc3)cc3ccccc23)CC1 [CBK002977C] | 94.8
71 | CC(C)(C)OC(=O)N1CCN(c2ccc(C(F)(F)F)c(Cl)n2)CC1 [CBK003030] | 88.9
72 | COc1ccc(OC)c(CCO)c1 [CBK003033] | 94.4
73 | CC(C)(C)OC(=O)N1CCC(Oc2ccccc2C#N)C1 (stereo not drawn) [CBK003039] | 84.9
74 | Cc1cccc(C)c1OCC(O)CNCCc1ccccc1 (stereo not drawn) [CBK003072] | 107
75 | O=S(=O)(Nc1ccc(N2CCNCC2)c2ccccc12)c1cc(Cl)sc1Cl [CBK003116C] | 93.9
76 | O=S(=O)(Nc1ccc(N2CCNCC2)c2ccccc12)c1ccc(Cl)s1 [CBK003146C] | 104
77 | CC(C)(C)OC(=O)N1CCN(c2ccc(N)c3ccccc23)CC1 [CBK003162] | 88.3
78 | c1ccc(CNc2cccc(N3CCNCC3)n2)cc1 [CBK003176T] | 92
79 | CC(C)(C)OC(=O)NC(C)(C)C(=O)N1CC(C(=O)O)C(c2cc3ccccc3o2)C1 (stereo not drawn) [CBK003236] | 88
80 | CC(C)(CN(Cc1ccccc1)C(=O)/C=C/c1ccccc1)NC(=O)OC(C)(C)C [CBK003266] | 91.2
81 | CCNc1nc(Sc2ccc(Cl)cc2)cc(C(F)(F)F)n1 [CBK003349] | 79.4
82 | O=C(CCC(=O)c1ccccc1)NC1CCc2ccccc21 (stereo not drawn) [CBK003351] | 103
83 | Cc1ccc(S(=O)(=O)N2CCC(OC(N)=O)CC2)cc1 [CBK003369] | 106
84 | CC(C)(C)OC(=O)CN1C(=O)N[C@@H]2CCCC[C@@H]21 [CBK003423] | 84.8
85 | CCC(CC)Cn1c(-c2cccnc2)nc2cc(S(=O)(=O)NCCO)ccc21 [CBK003450] | 91
86 | O=C(O)c1cccc2c3c([nH]c12)CCCCC3 [CBK003451] | 85
87 | CSc1nc(N)cc(N2CCN(C(=O)OC(C)(C)C)CC2)n1 [CBK003458] | 111
88 | CC(C)(C)OC(=O)N1CCN(c2ccc(N)cn2)CC1 [CBK003463] | 95.5
89 | CC(=O)Nc1ccc2c(c1)CCC(C)C2=O (stereo not drawn) [CBK003474] | 78.4
90 | Cc1c(Cl)cccc1S(=O)(=O)Nc1nc(CCN2CCOCC2=O)cs1 [CBK003498K] | 87.7

same assay, conditions: human, hela cells, % viability, bulk resorufin, single well

Row | SMILES | viability at 28.5 h, 10 µM [%]
91 | O=C1CCCc2c1c1cccc(C(=O)O)c1n2Cc1ccccc1 [CBK002365] | 95.6
92 | CN(C)[C@H]1CCC[C@@H]1C(=O)Nc1ccc(Cl)c(Cl)c1 [CBK003406] | 86.9
93 | CCC(=O)N(C[C@H]1CCC[C@@H]1N(C)C)c1ccc(Cl)c(Cl)c1 [CBK003408] | 96.5
